{"source": "patent US20240361317A1", "about": "“PROBES BASED ON VOLATILE ORGANIC COMPOUNDS AND USES THEREOF FOR THE DIAGNOSIS AND PROGNOSIS OF PATHOLOGICAL CONDITIONS” (Centre National de la Recherche Scientifique, priority 2021, published 2024)", "key": {"α-Mannosidase": {"test_system": "α-Mannosidase", "assay": "Plasma protocol: labeled ethanol released in headspace of plasma after adding probe", "format": "biochemical, human", "details": "Ethanol-D5; Cocktail 3; 10^−3/10^−4 mol·L^−1; Splitless", "text": "(§1) In advance, the enzymatic activities present in the blood samples of 7 healthy volunteers aged 20 to 30 years were studied by means of two cocktails of distinct probes (Table 6). This study had the objective (1) to set the final composition of the cocktails, (2) to define the concentrations of the probes to add to blood samples to obtain a significant isotope response knowing that this response would not be linked to spontaneous hydrolysis of the corresponding probes, (3) to define the optimal kinetic point, (4) to have an idea of the range of response of the isotopes of ethanol in healthy plasma samples.\n(§2) Furthermore, two samples per patient were carried out in order to study the potential impact on the enzymatic activities here targeted of holding the samples at room temperature for several hours (an action which can take place in hospital conditions). Thus, the first sample was transformed into plasma and then frozen in the hour following the blood sampling. The second was reserved for 5 h at […], before treatment and then freezing. The samples were all stored at −20° C. until analysis.\n(§3) According to the plasma protocol described above, the probes were used to detect the six enzymatic activities in these samples. […] The VOCs trapped on the SPME fiber are then analyzed by GC-TQMS according to the parameters defined in Tables 4 and 5. […]"}, "α-Glucosidase": {"test_system": "α-Glucosidase", "assay": "Plasma protocol: labeled ethanol released in headspace of plasma after adding probe", "format": "biochemical, human", "details": "Ethanol-D4; Cocktail 1; 10^−3/10^−4 mol·L^−1; Splitless", "text": "as §1, §2, §3"}, "[1]": {"target": "T1, β-glucuronidase of E. coli (Escherichia coli, UniProt P05804)", "T1 construct": "purchased Sigma Aldrich", "T1 sequence (P05804 whole entry)": "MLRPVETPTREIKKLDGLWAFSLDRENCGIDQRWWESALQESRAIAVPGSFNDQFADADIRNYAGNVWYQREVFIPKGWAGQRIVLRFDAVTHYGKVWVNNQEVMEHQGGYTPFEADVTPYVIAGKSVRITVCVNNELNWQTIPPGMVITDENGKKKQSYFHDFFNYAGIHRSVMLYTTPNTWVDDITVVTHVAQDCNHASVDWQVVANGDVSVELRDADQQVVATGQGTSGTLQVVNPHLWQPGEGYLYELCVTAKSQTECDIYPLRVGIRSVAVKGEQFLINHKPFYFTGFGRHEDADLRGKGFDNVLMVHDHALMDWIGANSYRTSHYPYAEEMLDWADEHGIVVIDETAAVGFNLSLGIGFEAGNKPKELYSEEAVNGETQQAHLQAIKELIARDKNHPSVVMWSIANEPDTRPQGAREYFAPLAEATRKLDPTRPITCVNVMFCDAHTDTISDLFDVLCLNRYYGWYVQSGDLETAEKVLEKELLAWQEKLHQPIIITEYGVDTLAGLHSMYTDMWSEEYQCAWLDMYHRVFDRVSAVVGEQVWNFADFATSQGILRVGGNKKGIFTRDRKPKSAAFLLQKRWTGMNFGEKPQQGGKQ", "assay": "Limit of detection of model β-glucuronidase in plasma matrix with the VOC probe (SPME, GC-TQMS of ethanol-D5)", "format": "biochemical", "description": "(§4) The plasma (approximately […]) is extracted and stored at −20° C. until analysis. An aliquot of 25 μL of plasma is sampled and inserted into a […] with an insert. This biological sample is added to 50 μL of acetate buffer solution (pH 5), protease inhibitor (1×) and 25 μL probe D5-ethyl-β-D-glucuronide at […]. After hermetic closure and agitation to the vortex of the vial, an SPME (SPME in semi-polar phase of the Car/PDMS, 1 cm long and 75 μm thick type with a 24 ga needle; Supelco) of the gas phase above the sample of a duration of 30 mi is carried out after 2 h, 4 h and 7 h of reaction. Each kinetic point requires a vial reaction, and is carried out in duplicate. The VOCs trapped on the SPME fiber are then analyzed by G-TQMS. GC-TMS detection of the ethanol isotopes (thus including ethanol-D5) is carried out with gas chromatography coupled to a triple quadrupole equipped with an E1 source (TSQ 9000, Thermo Fisher Scientific). The system is controlled by the software TSQ 9000 and the results are analyzed with the Xcalibur software (Thermo Fisher Scientific).\nThe limit of detection (LOD) of a model enzyme (β-glucuronidase of E. coli; liquid solution 50% glycerol, 140 U·mL^−1; Sigma Aldrich) in plasma matrix in the presence of probe D5-ethyl-β-D-glucuronide was then determined. For this, a plasma sample for which the activity of endogenous β-glucuronidase was not detectable, was added to enzyme concentrations ranging from […] to 1.10^−13 mol·L ^−1. The amount of ethanol-D5 released was monitored before adding probe and then after 2.5, 4.5 and 7.5 h of reaction at 30° C."}, "β-glucuronidase [2]": {"target": "T2, β-glucuronidase (Homo sapiens, UniProt P08236)", "T2 construct": "from tissue; host or cells: human blood plasma", "T2 sequence (P08236 23-651)": "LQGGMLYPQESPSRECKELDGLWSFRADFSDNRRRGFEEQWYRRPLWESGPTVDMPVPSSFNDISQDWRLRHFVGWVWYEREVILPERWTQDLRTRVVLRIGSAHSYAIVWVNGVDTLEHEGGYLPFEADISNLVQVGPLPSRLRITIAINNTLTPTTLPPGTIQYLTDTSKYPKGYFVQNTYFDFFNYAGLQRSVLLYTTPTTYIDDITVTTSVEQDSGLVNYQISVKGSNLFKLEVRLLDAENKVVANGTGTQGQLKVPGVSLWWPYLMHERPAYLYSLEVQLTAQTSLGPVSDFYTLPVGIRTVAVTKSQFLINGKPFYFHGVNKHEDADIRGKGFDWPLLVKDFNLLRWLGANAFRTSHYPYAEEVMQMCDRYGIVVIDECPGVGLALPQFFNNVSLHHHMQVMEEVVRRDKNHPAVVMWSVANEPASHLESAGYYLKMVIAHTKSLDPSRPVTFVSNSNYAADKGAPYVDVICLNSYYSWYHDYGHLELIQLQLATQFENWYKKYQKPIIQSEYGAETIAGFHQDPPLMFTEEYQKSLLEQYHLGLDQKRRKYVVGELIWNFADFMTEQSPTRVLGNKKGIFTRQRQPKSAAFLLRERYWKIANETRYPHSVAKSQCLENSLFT", "assay": "Plasma protocol: labeled ethanol released in headspace of plasma after adding probe", "format": "biochemical", "description": "as §4\nBlood samples were taken by the caregiver associated with the oncological service, then collected and pretreated with the CIC. This study included samples of plasma taken from 11 patients suffering from breast cancer and 11 patients suffering from lung cancer.\nThese patients were diagnosed, but had at the time of sampling not yet received treatment. Their response was compared to that obtained from the plasma of 4 healthy patients. The results were compared to an experimental blank wherein the probe was added, but the enzyme was not present (FIG. 3). […]\nAfter adding the 4 probes (according to the above protocol), the quantity of the 4 isotopes of the ethanol released above the samples of the patients was measured over time. […]\nas §3"}, "[3]": {"test_system": "β-glucuronidase present in the extracellular matrix", "assay": "Ethanol-D5 in headspace of mouse tumor (MDA-MB-231, KB) and healthy liver biopsies after adding probe", "details": "probe 10^−9, 10^−8 and 10^−6 M", "description": "Thus, tests during which the tumoral and healthy biopsies were placed in the presence of decreasing concentrations of D5-ethyl-β-D-glucuronide were carried out. The probe concentration retained corresponded to the concentration for which no response of healthy tissues was obtained, whereas an enzymatic response was observed on cancer tissues.\nIn the context of this work, two tumor biopsies, taken on mouse models, were studied (MDA-MB-231: human breast cancer cells, KB: human nasopharynx cancer cells). Two mouse liver biopsies were used as healthy tissues. Probe solutions at 10^−7, 10^−6, 10^−4 and 10^−2 M were prepared in a PBS buffer (137 mM NaCl, 2.7 mM KCl, 10 mM Na2HPO4, 1.8 mM KH2PO4, pH 7.4).\nThe biopsies were rinsed with 500 μL of PBS and then placed in a vial with an insert of 2 mL. A volume of 297 μL of PBS was added to the vial. The volatile molecules present in the headspace of the vial were trapped for 30 min in order to ensure that no ethanol-D5 was detected. Then 3 μL of probe at […] were added (final probe concentration in the vial of […]). After hermetic closure and vortex agitation, the volatile compounds were preconcentrated on SPME fiber (Car/PDMS, Supelco) for 30 min and then analyzed by GC-TQMS (analysis conditions described in Table 2)."}, "N-acetyl glucosaminidase": {"test_system": "N-acetyl glucosaminidase", "assay": "Specificity study: hydrolysis of probes by the enzyme", "format": "biochemical", "description": "(§5) The detection performances of this compound in the presence of ethanol and ethanol-D5 were then verified. […] The detection ranges of ethanol-D5 and ethanol-^13C-D5 were then carried out under SPME sampling conditions developed for biological samples (30 min of sampling at 30° C.). The two isotopes were present in mixtures in solution. The limits of detection obtained are respectively […]. The SPME-GC-TQMS method therefore allows a sharp differentiation of the two isotopes according to their mass fragmentation. An experimental study was then carried out in order to evaluate the affinity of the D5-ethyl-β-D-glucuronide and ^13C-D5-ethyl-N-acetylglucosamine for their respective enzyme (β-glucuronidase and N-acetyl glucosaminidase). For this, the efficacy of hydrolysis of each of these enzymes was studied in the presence of their respective probe (FIG. 6) then in the presence of the substrate probe of its partner (FIG. 7). […] In the presence of the two substrates, each enzyme gives a signal only for the probe specific to it (FIG. 8)."}, "β-glucuronidase [4]": {"target": "β-glucuronidase (Escherichia coli, UniProt P05804)", "sequence (P05804 whole entry)": "as the sequence (P05804 whole entry) above", "assay": "Specificity study: hydrolysis of probes by the enzyme", "format": "biochemical", "description": "as §5"}, "[5]": {"assay": "Spontaneous hydrolysis of probes in buffer solution / during the reaction", "format": "physicochemical", "details": "acetate buffer, maximum concentration", "description": "According to the plasma protocol described above, the probes were used to detect the six enzymatic activities in these samples. To summarize, an aliquot of 25 μL of plasma will be sampled and inserted into a 2 mL vial with an insert. This biological sample was added from 61.4 μL buffer solution (pH 5), 3.6 μL of protease inhibitor (1×) and 10 μL of one or the other of the cocktails. After hermetic closure and agitation to the vortex of the vial, an SPME (SPME in semi-polar phase of the Car/PDMS, 1 cm long and 75 μm thick type with a 24 ga needle, Supelco) of the gas phase above the sample of a duration of 30 min will be carried out after 2 h, 4 h and 7 h of reaction. Each kinetic point requires a vial reaction, and was carried out in duplicate. The VOCs trapped on the SPME fiber are then analyzed by GC-TQMS according to the parameters defined in Tables 4 and 5. Blank cocktails (cocktails in acetate buffer with no plasma) and plasma blanks (plasmas with an acetate buffer without cocktail) were carried out every day of analysis.\nThe responses of the probes in the plasma samples were compared to their responses in so-called “blank” samples and corresponding to the probes added to the acetate buffer alone."}}}
{"molecule": "CCC[C@H]1C[C@H](CC)[C@@H](C)[C@H](C)[C@@H]1C", "note": "[drawing 26]", "values": [{"measurement": "Plasma response range (u.a.)", "setting": "α-Mannosidase", "value": "1000-50000 u.a."}]}
{"molecule": "CCC[C@H]1C[C@H](CC)[C@@H](C)[C@H](C)[C@@H]1C", "note": "[drawing 22]", "values": [{"measurement": "Plasma response range (u.a.)", "setting": "α-Glucosidase", "value": "0-3000 u.a."}]}
{"molecule": "[2H]C([2H])([2H])C([2H])([2H])O[C@@H]1O[C@H](C(=O)O)[C@@H](O)[C@H](O)[C@H]1O", "note": "[D5-ethyl-β-D-glucuronide]", "values": [{"measurement": "LOD lower than threshold value of the reference detection method (para-nitrophenol glucuronide, UV)", "setting": "[1]", "value": 100, "unit": "times"}, {"measurement": "minimum quantity of detectable enzyme", "setting": "[1]; plasma matrix", "value": "1.10^−18 mol"}, {"measurement": "concentration at which β-glucuronidase can be detected in plasma", "setting": "[1]; plasma, first results", "value": "less than 5.10^−13 M"}, {"measurement": "amount of ethanol-D5 released above plasma of patients with cancer compared to blanks and healthy patients", "setting": "β-glucuronidase [2]; 11 breast cancer, 11 lung cancer patients, 4 healthy patients", "value": "significantly higher"}, {"measurement": "discernment between healthy patients and cancer patients", "setting": "β-glucuronidase [2]; cocktail of 4 probes, plasma of breast and lung cancer patients vs 4 healthy", "value": "allow clear discernment between healthy patients and cancer patients"}, {"measurement": "ethanol-D5 release for cancer tissues", "setting": "[3]; MDA-MB-231 and KB tumor biopsies", "value": "release of this isotope was detected"}, {"measurement": "ethanol-D5 response on healthy tissues", "setting": "[3]; mouse liver biopsies", "value": "no response"}, {"measurement": "hydrolysis of probe by N-acetyl glucosaminidase (labeled ethanol signal)", "setting": "N-acetyl glucosaminidase", "value": "does not hydrolyze"}, {"measurement": "hydrolysis of probe by β-glucuronidase (labeled ethanol signal)", "setting": "β-glucuronidase [4]", "value": "has hydrolyzed its own probe"}, {"measurement": "spontaneous hydrolysis when placing in buffer solution", "setting": "[5]", "value": "significant spontaneous hydrolysis"}]}
